Results published in patent US7691965B2, “Helical synthetic peptides that stimulate cellular cholesterol efflux” (The Regents of the University of California, priority 2002, dated 2010).
Where a SMILES comes first, the peptide text is derived from it.

What was measured:
[1] = Relative lipid binding affinity by surface balance technique (monolayer exclusion pressure); assay type: physicochemical; settings: for Monolayer exclusion pressure: surface balance technique
Text: (§1) Relative Lipid Binding Affinity, Hydrophobicity, and Amphiphilicity of Synthetic Peptides—In some experiments, the relative lipid binding affinity of unique peptides was quantified using a surface balance technique (Gillotte, K L. et al., J. Biol. Chem., 274:2021-2028 (1999)). For routine analyses, a turbid solution of dimyristoylphosphatidylcholine (DMPC) was used to assess the relative capacity of synthetic peptides to solubilize phospholipid as described (Palgunachari, M. N. et al., Arterioscler. Thromb. Vasc. Biol., 16:328-338 (1996); McLean, L. R. and Hagaman, K. A., Biochim. Biophys. Acta, 1167:289-295 (1993)). The DMPC was used at a final concentration of 0.08 mg/ml in 10 mM Tris-saline (pH 7.4). The final weight ratio of peptides relative to DMPC was 1:1. The absorbance (400 nm) of samples was monitored continuously over a period of 30 min at 25° C. Hydrophobicity of helical peptides was calculated using the consensus scale (Eisenberg D., Annu. Rev. Biochem., 53:593-623 (1984)). The hydrophobic moment (kcal/mol) of synthetic peptides, which is a measure of helix amphiphilicity, was calculated as described by Eisenberg et al. (Eisenberg, D. et al., Nature, 299:371-374 (1982)).

[2] = target: T1, ABCA1 (Mus musculus, UniProt P41233); test: Cellular cholesterol efflux from [3H]cholesterol-labeled J774 macrophages with and without cAMP analog; assay type: cell-based; design: endogenous in cells; host or cells: J774 macrophages treated with a cAMP analog (CPT-cAMP or 8-bromo-cAMP); settings: for ABCA1-dependent cholesterol efflux (result in words): lipid-free acceptor, J774 macrophages with vs without cAMP analog
T1 sequence (P41233 whole entry): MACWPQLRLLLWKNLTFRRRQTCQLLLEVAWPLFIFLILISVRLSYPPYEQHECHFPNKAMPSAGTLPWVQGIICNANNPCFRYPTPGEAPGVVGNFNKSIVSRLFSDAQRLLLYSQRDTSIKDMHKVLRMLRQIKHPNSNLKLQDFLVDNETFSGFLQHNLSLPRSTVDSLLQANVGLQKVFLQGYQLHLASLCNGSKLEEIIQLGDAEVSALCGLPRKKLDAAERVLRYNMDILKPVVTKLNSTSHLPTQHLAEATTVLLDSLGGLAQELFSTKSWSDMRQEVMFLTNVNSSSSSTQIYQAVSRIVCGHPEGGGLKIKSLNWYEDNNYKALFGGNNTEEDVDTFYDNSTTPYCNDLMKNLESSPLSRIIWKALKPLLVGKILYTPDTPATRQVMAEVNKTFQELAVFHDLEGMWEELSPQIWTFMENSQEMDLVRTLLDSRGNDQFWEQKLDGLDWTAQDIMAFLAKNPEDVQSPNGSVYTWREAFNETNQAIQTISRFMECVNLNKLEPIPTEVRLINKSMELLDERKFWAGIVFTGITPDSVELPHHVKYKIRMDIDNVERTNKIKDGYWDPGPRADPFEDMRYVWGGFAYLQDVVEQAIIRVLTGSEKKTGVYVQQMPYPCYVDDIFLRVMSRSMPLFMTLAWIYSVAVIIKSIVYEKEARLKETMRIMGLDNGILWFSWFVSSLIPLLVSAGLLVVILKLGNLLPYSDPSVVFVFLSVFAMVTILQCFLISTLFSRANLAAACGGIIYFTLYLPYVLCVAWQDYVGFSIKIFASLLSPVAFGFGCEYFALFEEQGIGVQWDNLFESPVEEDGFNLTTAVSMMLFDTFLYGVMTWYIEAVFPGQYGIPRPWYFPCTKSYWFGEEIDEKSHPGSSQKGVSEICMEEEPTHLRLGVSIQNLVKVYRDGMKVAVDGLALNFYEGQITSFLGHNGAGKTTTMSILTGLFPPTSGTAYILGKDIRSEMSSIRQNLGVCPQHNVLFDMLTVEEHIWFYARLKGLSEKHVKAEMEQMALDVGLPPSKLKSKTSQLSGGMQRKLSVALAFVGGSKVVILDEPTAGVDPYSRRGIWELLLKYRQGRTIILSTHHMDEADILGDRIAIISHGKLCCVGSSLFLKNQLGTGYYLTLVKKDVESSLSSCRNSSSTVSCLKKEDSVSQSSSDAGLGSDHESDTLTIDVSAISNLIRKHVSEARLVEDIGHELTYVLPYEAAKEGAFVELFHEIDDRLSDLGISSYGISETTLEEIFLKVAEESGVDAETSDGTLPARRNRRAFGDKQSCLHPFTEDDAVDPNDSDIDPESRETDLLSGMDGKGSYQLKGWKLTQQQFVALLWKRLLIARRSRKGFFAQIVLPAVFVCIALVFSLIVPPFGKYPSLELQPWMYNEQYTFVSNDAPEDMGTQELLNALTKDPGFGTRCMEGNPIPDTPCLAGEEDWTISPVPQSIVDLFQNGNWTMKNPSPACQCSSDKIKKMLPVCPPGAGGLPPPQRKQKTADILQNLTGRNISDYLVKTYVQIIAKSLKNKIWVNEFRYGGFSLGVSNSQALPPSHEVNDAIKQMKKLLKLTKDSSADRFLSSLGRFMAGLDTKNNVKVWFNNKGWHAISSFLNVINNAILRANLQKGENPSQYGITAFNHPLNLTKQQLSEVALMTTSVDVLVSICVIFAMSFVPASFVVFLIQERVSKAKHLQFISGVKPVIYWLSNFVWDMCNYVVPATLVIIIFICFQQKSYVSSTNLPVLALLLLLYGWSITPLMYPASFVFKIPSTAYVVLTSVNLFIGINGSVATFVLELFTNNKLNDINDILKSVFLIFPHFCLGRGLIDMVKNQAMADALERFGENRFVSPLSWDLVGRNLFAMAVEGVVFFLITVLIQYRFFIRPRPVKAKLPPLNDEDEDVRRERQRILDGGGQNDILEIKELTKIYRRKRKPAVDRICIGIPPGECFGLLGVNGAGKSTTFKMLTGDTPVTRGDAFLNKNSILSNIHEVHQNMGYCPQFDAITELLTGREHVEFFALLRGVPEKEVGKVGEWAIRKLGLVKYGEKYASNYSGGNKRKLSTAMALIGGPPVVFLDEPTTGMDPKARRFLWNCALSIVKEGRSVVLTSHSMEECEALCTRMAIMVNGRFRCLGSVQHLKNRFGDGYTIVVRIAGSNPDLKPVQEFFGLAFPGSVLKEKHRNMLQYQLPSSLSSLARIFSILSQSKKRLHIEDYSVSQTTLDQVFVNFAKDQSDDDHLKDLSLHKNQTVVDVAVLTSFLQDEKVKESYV
Text: Suitable cholesterol efflux assays are described in, e.g., Bielicki, J. K and Oda, M. N., Biochemistry, 41:2089-2096 (2002); Jia, Z. et al., Biochem. Biophys. Res. Common., 297:206-213 (2002). In some embodiments, a polypeptide known to mediate cholesterol efflux (e.g., helix 9/10 of Apo A-I) is used to screen for additional mediators of cholesterol efflux in a cell based assay. For example, cell lines in which cholesterol efflux can be enhanced using a cAMP analog that up-regulates ABCA1 protein expression (e.g., J774 macrophages) can conveniently be used to assess the ability of an Apo A-I, Apo A-II, Apo A-IV, Apo E, Apo C-I, Apo C-II, Apo C-III, or Serum Amyloid A peptide to mediate cholesterol efflux. The cells are incubated with labeled cholesterol (e.g., [^3H]cholesterol) under conditions appropriate for cholesterol uptake by the cells. cAMP or cAMP analogs (e.g., CPT-cAMP) is incubated with the cells for a suitable time before the initiation of cellular cholesterol efflux, i.e., prior to contacting the cells with helix 9/10 of Apo A-I or the test compound. Measurement of labeled cholesterol appearing in the medium is used to determine the cholesterol efflux mediating activity of the test compound.
Cellular Cholesterol Efflux Protocol—J774 macrophages were used to assess the cholesterol efflux properties of synthetic amphipathic α-helical peptides (Bielicki, J. K and Oda, M. N., Biochemistry, 41:2089-2096 (2002); Jia, Z. et al., Biochem. Biophys. Res. Common., 297:206-213 (2002)). This cell line was chosen because cholesterol efflux can be enhanced using a cAMP analog that up-regulates ABCA1 protein expression. The cells were seeded onto 24-well culture plates and labeled for 48 h with [^3H]cholesterol in RPMI 1640 supplemented with 1% fetal bovine serum. The cAMP analog CPT-cAMP was added (0.3 mM, final concentration) to the cells at least 12 h before the initiation of cellular cholesterol efflux. Synthetic peptides in lipid-free form were added to cells in serum-free RPMI. The lipid-free form of full-length recombinant apoA-I was used as a positive control to define apparent ABCA1-dependent cholesterol efflux in the presence and absence of cAMP stimulation. Efflux results were expressed as a percentage of the initial cellular [^3H] appearing in the medium as a function of time subtracting the background efflux obtained using serum-free medium alone.

[3] = target: T1, ABCA1; test: ABCA1 stabilization: immunoblot of ABCA1 protein in J774 macrophage membranes after cAMP withdrawal; assay type: cell-based; design: J774 macrophages were used to assess relative ABCA1 protein levels in the presence and absence of synthetic peptides; endogenous in cells; host or cells: J774 macrophages treated with a cAMP analog (CPT-cAMP or 8-bromo-cAMP); settings: concentration dependence studies, J774 macrophages
[4] = target: T1, ABCA1; test: as above; assay type: cell-based; design: J774 macrophages were used to assess relative ABCA1 protein levels in the presence and absence of synthetic peptides; endogenous in cells; host or cells: J774 macrophages treated with a cAMP analog (CPT-cAMP or 8-bromo-cAMP); settings: 20 μg/ml peptide, 6 h without cAMP, J774 macrophages
Protocol: J774 macrophages were incubated (18 h) with 0.5 mM 8-bromo-cAMP in medium containing 0.1% bovine serum albumin to up-regulate ABCA1 protein expression. Washed cells were subsequently exposed for 6 h to bovine serum albumin medium with (+) or without (−) 8-bromo-cAMP and the indicated synthetic peptides (20 μg/ml). None refers to no peptides. The cellular membrane content of ABCA1 protein was measured by immunoblot analysis.
ABCA1 Stabilization—J774 macrophages were used to assess relative ABCA1 protein levels in the presence and absence of synthetic peptides. Cells were grown in 10% fetal bovine serum, extensively rinsed, and incubated (18 h) with Dulbecco's modified Eagle's medium containing 0.1% bovine serum albumin plus the cAMP analog 8-bromo-cAMP. Cells were next exposed to synthetic peptides or serum-free medium in the absence of the cAMP stimulus to evaluate whether ABCA1 protein was stabilized or degraded. Relative levels of ABCA1 protein were assessed by immunoblot analysis of cell membranes (Oram, J. F. et al., J. Biol. Chem., 278:52379-52385 (2003)). ABCA1 was visualized using an enhanced chemiluminescence detection assay.
To assess ABCA1 stabilization, J774 macrophages were treated with a cAMP analog to up-regulate ABCA1 protein expression and then incubated for 6 h without cAMP. In the absence of inducer, ABCA1 protein is rapidly degraded in these cells (FIG. 9). […] Thus, it appears that the helical combinations that stimulate cholesterol efflux also stabilize the ABCA1 transporter.

[5] = DMPC clearance assay (solubilization of a turbid phospholipid solution); assay type: physicochemical
Text: as §1, with “Peptides-In” for “Peptides—In”, “[…].,” for “Hagaman, K. A.,”

| Compound | lipid binding affinity (surface balance technique), result in words [1] | concentration at which cholesterol efflux reached maximal levels ([2]; cAMP-treated J774 cells) [µg/mL] | ABCA1-dependent cholesterol efflux (result in words) [2] | lowest concentration that prevented ABCA1 degradation [3] [µg/mL] | Monolayer exclusion pressure [1] [dynes/cm] | cholesterol efflux relative to that obtained with full-length apoA-I ([2]; 75 μg/ml, cAMP-treated macrophages) [%] | ABCA1 stabilization (result in words) [4] | DMPC clearance [5] | ABCA1-dependent cholesterol efflux (result in words) ([2]; listed as Helix 10) | ABCA1-dependent cholesterol efflux (result in words) ([2]; listed as helix 10) | ABCA1 stabilization (result in words) ([4]; listed as Helix 10) |
| --- | --- | --- | --- | --- | --- | --- | --- | --- | --- | --- | --- |
| full-length apoA-I: full-length recombinant His-tagged apolipoprotein A-I from a bacterial expression system, positive control [reference compound] | identical | 10 | increased dramatically upon the up-regulation of the ABCA1 transporter | ~10 | – | – | – | – | – | – | – |
| CC(=O)N[C@@H](CC(C)C)C(=O)N[C@@H](CCCCN)C(=O)N[C@@H](CC(C)C)C(=O)N[C@@H](CC(C)C)C(=O)N[C@@H](CC(=O)O)C(=O)N[C@@H](CC(N)=O)C(=O)N[C@@H](Cc1c[nH]c2ccccc12)C(=O)N[C@@H](CC(=O)O)C(=O)N[C@@H](CO)C(=O)N[C@H](C(=O)N[C@H](C(=O)N[C@@H](CO)C(=O)N[C@H](C(=O)N[C@@H](Cc1ccccc1)C(=O)N[C@@H](CO)C(=O)N[C@@H](CCCCN)C(=O)N[C@@H](CC(C)C)C(=O)N[C@@H](CCCNC(=N)N)C(=O)N[C@@H](CCC(=O)O)C(=O)N[C@@H](CCC(N)=O)C(=O)N[C@@H](CC(C)C)C(=O)NCC(N)=O)[C@@H](C)O)[C@@H](C)O)C(C)C [Helical peptide 1] (Ac-LKLLDNWDSVTSTFSKLREQLG-NH2) | identical | – | failed to stimulate ABCA1-dependent cholesterol efflux | – | 30 | 15 | failed to prevent ABCA1 degradation | – | – | – | – |
| CC(=O)N1CCC[C@H]1C(=O)N[C@@H](C)C(=O)N[C@@H](CC(C)C)C(=O)N[C@@H](CCC(=O)O)C(=O)N[C@@H](CC(=O)O)C(=O)N[C@@H](CC(C)C)C(=O)N[C@@H](CCCNC(=N)N)C(=O)N[C@@H](CCC(N)=O)C(=O)NCC(=O)N[C@@H](CC(C)C)C(=O)N[C@@H](CC(C)C)C(=O)N[C@@H](CC(C)C)C(=O)N[C@@H](CCCCN)C(=O)N[C@@H](CC(C)C)C(=O)N[C@@H](CC(C)C)C(=O)N[C@@H](CC(=O)O)C(=O)N[C@@H](CC(N)=O)C(=O)N[C@@H](Cc1c[nH]c2ccccc12)C(=O)N[C@@H](CC(=O)O)C(=O)N[C@@H](CO)C(=O)N[C@H](C(=O)N[C@H](C(=O)N[C@@H](CO)C(=O)N[C@H](C(=O)N[C@@H](Cc1ccccc1)C(=O)N[C@@H](CO)C(=O)N[C@@H](CCCCN)C(=O)N[C@@H](CC(C)C)C(=O)N[C@@H](CCCNC(=N)N)C(=O)N[C@@H](CCC(=O)O)C(=O)N[C@@H](CCC(N)=O)C(=O)N[C@@H](CC(C)C)C(=O)NCC(N)=O)[C@@H](C)O)[C@@H](C)O)C(C)C [Helical peptide 9/1] (Ac-PALEDLRQGLLLKLLDNWDSVTSTFSKLREQLG-NH2) | – | – | stimulated cholesterol efflux in an ABCA1-dependent manner | – | – | – | retained ABCA1 stabilization activity | + | – | – | – |
| CC(=O)N1CCC[C@H]1C(=O)N[C@H](C(=O)N[C@@H](CC(C)C)C(=O)N[C@@H](CCC(=O)O)C(=O)N[C@@H](CO)C(=O)N[C@@H](Cc1ccccc1)C(=O)N[C@@H](CCCCN)C(=O)N[C@H](C(=O)N[C@@H](CO)C(=O)N[C@@H](Cc1ccccc1)C(=O)N[C@@H](CC(C)C)C(=O)N[C@@H](CO)C(=O)N[C@@H](C)C(=O)N[C@@H](CC(C)C)C(=O)N[C@@H](CCC(=O)O)C(=O)N[C@@H](CCC(=O)O)C(=O)N[C@@H](Cc1ccc(O)cc1)C(=O)N[C@H](C(=O)N[C@@H](CCCCN)C(=O)N[C@@H](CCCCN)C(=O)N[C@@H](CC(C)C)C(=O)N[C@@H](CC(N)=O)C(N)=O)[C@@H](C)O)C(C)C)C(C)C [Helical peptide 10] (Ac-PVLESFKVSFLSALEEYTKKLN-NH2) | – | – | – | – | 28 | – | failed to prevent ABCA1 degradation | – | does not mediate ABCA1-dependent cholesterol efflux | poor mediator of cellular cholesterol efflux | nor does it stabilize ABCA1 |
